Experimental data from ChEMBL document CHEMBL3046213, “Repellent, insecticidal and phytotoxic activities of isoalantolactone from Inula racemosa” (Crop Prot, 2006).

How the values were obtained:
[1] = system: Triticum aestivum; assay: Phytotoxicity in Triticum aestivum (wheat) assessed as root growth at 500 ug/ml pre-soaked for 30 min measured after 72 hr relative to acetone-treated control; assay type: organism-based; conditions: in vivo
[2] = system: Triticum aestivum; assay: Phytotoxicity in Triticum aestivum (wheat) assessed as shoot growth at 500 ug/ml pre-soaked for 60 min measured after 120 hr relative to acetone-treated control; assay type: organism-based; conditions: in vivo
[3] = system: Sitophilus oryzae; assay: Insecticidal activity against Sitophilus oryzae (rice weevil) assessed as mortality at 0.05 ug/g after 5 days by food poison technique relative to acetone-treated control; assay type: functional
[4] = system: Triticum aestivum; assay: Phytotoxicity in Triticum aestivum (wheat) assessed as root growth at 500 ug/ml pre-soaked for 60 min measured after 48 hr relative to acetone-treated control; assay type: organism-based; conditions: in vivo
[5] = system: Sitophilus oryzae; assay: Insecticidal activity against Sitophilus oryzae (rice weevil) assessed as mortality at 3000 ug/g after 15 days by food poison technique relative to acetone-treated control; assay type: functional
[6] = system: Triticum aestivum; assay: Phytotoxicity in Triticum aestivum (wheat) assessed as shoot growth at 500 ug/ml pre-soaked for 60 min measured after 96 hr relative to acetone-treated control; assay type: organism-based; conditions: in vivo
[7] = system: Triticum aestivum; assay: Phytotoxicity in Triticum aestivum (wheat) assessed as germination rate at 500 ug/ml pre-soaked for 60 min measured after 72 hr relative to acetone-treated control; assay type: organism-based; conditions: in vivo
[8] = system: Sitophilus oryzae; assay: Insecticidal activity against Sitophilus oryzae (rice weevil) assessed as mortality at 600 ug/g after 15 days by food poison technique relative to acetone-treated control; assay type: functional
[9] = system: Sitophilus oryzae; assay: Insecticidal activity against Sitophilus oryzae (rice weevil) assessed as mortality at 200 ug/g after 5 days by food poison technique relative to acetone-treated control; assay type: functional
[10] = system: Triticum aestivum; assay: Phytotoxicity in Triticum aestivum (wheat) assessed as shoot growth at 500 ug/ml pre-soaked for 30 min measured after 120 hr relative to acetone-treated control; assay type: organism-based; conditions: in vivo
[11] = system: Sitophilus oryzae; assay: Insecticidal activity against Sitophilus oryzae (rice weevil) assessed as mortality at 400 ug/g after 10 days by food poison technique relative to acetone-treated control; assay type: functional
[12] = system: Sitophilus oryzae; assay: Insecticidal activity against Sitophilus oryzae (rice weevil) assessed as mortality at 2000 ug/g after 20 days by food poison technique relative to acetone-treated control; assay type: functional
[13] = system: Sitophilus oryzae; assay: Insecticidal activity against Sitophilus oryzae (rice weevil) assessed as mortality after 5 days by food poison technique; assay type: functional
[14] = system: Sitophilus oryzae; assay: Insecticidal activity against Sitophilus oryzae (rice weevil) assessed as mortality at 200 ug/g after 15 days by food poison technique relative to acetone-treated control; assay type: functional
[15] = system: Triticum aestivum; assay: Phytotoxicity in Triticum aestivum (wheat) assessed as root growth at 500 ug/ml pre-soaked for 30 min measured after 96 hr relative to acetone-treated control; assay type: organism-based; conditions: in vivo
[16] = system: Sitophilus oryzae; assay: Insecticidal activity against Sitophilus oryzae (rice weevil) assessed as mortality at 400 ug/g after 5 days by food poison technique relative to acetone-treated control; assay type: functional
[17] = system: Triticum aestivum; assay: Phytotoxicity in Triticum aestivum (wheat) assessed as germination rate at 500 ug/ml pre-soaked for 30 min measured after 96 hr relative to acetone-treated control; assay type: organism-based; conditions: in vivo
[18] = system: Sitophilus oryzae; assay: Repellent activity against Sitophilus oryzae (rice weevil) assessed as settling responses at 125 ug/g preincubated for 12 hr prior to inoculation measured after 24 hr by food preference chamber method (reference value: 49.45 +/- 2.65 %); assay type: functional
[19] = system: Sitophilus oryzae; assay: Insecticidal activity against Sitophilus oryzae (rice weevil) assessed as increase in mortality after 5 to 20 days by food poison technique; assay type: functional, organism-based
[20] = system: Sitophilus oryzae; assay: Insecticidal activity against Sitophilus oryzae (rice weevil) assessed as mortality at 400 ug/g after 20 days by food poison technique relative to acetone-treated control; assay type: functional
[21] = system: Triticum aestivum; assay: Phytotoxicity in Triticum aestivum (wheat) assessed as germination rate at 500 ug/ml pre-soaked for 30 min measured after 48 hr relative to acetone-treated control; assay type: organism-based; conditions: in vivo
[22] = system: Sitophilus oryzae; assay: Insecticidal activity against Sitophilus oryzae (rice weevil) assessed as mortality at 1000 ug/g after 15 days by food poison technique relative to acetone-treated control; assay type: functional
[23] = system: Sitophilus oryzae; assay: Insecticidal activity against Sitophilus oryzae (rice weevil) assessed as mortality at 600 ug/g after 10 days by food poison technique relative to acetone-treated control; assay type: functional
[24] = system: Sitophilus oryzae; assay: Repellent activity against Sitophilus oryzae (rice weevil) assessed as settling responses at 75 ug/g preincubated for 12 hr prior to inoculation measured after 24 hr by food preference chamber method (reference value: 49.45 +/- 2.65 %); assay type: functional
[25] = system: Triticum aestivum; assay: Phytotoxicity in Triticum aestivum (wheat) assessed as germination rate at 500 ug/ml pre-soaked for 30 min measured after 24 hr relative to acetone-treated control; assay type: organism-based; conditions: in vivo
[26] = system: Sitophilus oryzae; assay: Insecticidal activity against Sitophilus oryzae (rice weevil) assessed as mortality at 200 ug/g after 10 days by food poison technique relative to control; assay type: functional
[27] = system: Sitophilus oryzae; assay: Insecticidal activity against Sitophilus oryzae (rice weevil) assessed as mortality at 2000 ug/g after 10 days by food poison technique relative to acetone-treated control; assay type: functional
[28] = system: Sitophilus oryzae; assay: Insecticidal activity against Sitophilus oryzae (rice weevil) assessed as mortality at 2000 ug/g after 15 days by food poison technique relative to acetone-treated control; assay type: functional
[29] = system: Sitophilus oryzae; assay: Insecticidal activity against Sitophilus oryzae (rice weevil) assessed as mortality after 10 days by food poison technique; assay type: functional
[30] = system: Sitophilus oryzae; assay: Insecticidal activity against Sitophilus oryzae (rice weevil) assessed as mortality after 20 days by food poison technique; assay type: functional

Work on `C=C1C(=O)O[C@@H]2C[C@@]3(C)CCCC(=C)[C@@H]3C[C@H]12` [ISOALANTOLACTONE] yielded an Activity [1] of 97.4%, an Activity [2] of 63.5% and a mortality [3] of 86.54%. It also gave an Activity [4] of 46%, a mortality [5] of 100% and an Activity [6] of 47.9%. It also gave an Activity [7] of 84.6%, a mortality [8] of 56.41% and a mortality [9] of 11.9%. For the same molecule, the Activity [10] was 100.4%, the mortality [11] was 23.81% and the mortality [12] was 100%. It also gave an LC50 [13] of 1234.57 µg/g, a mortality [14] of 17.95% and an Activity [15] of 99.1%. The mortality [16] was 19.04%, the Activity [17] was 100% and the Activity [18] was 13.22%. For the same molecule, the Activity [19] was “Dose-dependent effect”, the mortality [20] was 35.91% and the Activity [21] was 94%. It also gave a mortality [22] of 69.23%, a mortality [23] of 55.38% and an Activity [24] of 12.41%. For the same molecule, the Activity [25] was 106.7%, the mortality [26] was 16.67% and the mortality [27] was 100%. The mortality [28] was 100%, the LC50 [29] was 707.21 µg/g and the LC50 [30] was 610.51 µg/g.
